Columns and labels:
Assay type in all cases: cell-based
[1] = tested on: LPS-induced NO production in RAW 264.7 macrophages; assay: Inhibition of LPS-induced NO production in RAW 264.7 macrophages (Griess reagent); conditions: for IC50: LPS-induced RAW 264.7 macrophages, 4 h pretreatment, then 48 h with 2 μg/mL LPS
Experimental: (§1) Then, 100-μL aliquots of the exponentially growing RAW 264.7 cells were seeded in 96-well culture plates at 1 × 10^4 cells/well at 37 °C for overnight in DMEM medium with 0.1% FBS. The culture medium was replaced by fresh free-FBS medium and cells were pretreated with different concentrations (0, 1, 3, 10, 30, 100, 300, 1000 μM) of samples for 4 h. Thereafter, the medium with samples was removed and then incubated for 48 h with or without 2 μg/mL LPS 10% FBS DMEM. The nitrite concentration (NO production) in the culture supernatant was measured using Nitric Oxide assay kit mainly containing Griess reagent. The absorbance was measured at 540 nm using a microplate reader (M5). The amount of NO was calculated from a standard curve created using sodium nitrite with known concentrations. The cell viability was evaluated by SRB colorimetric assay.

[2] = Cytotoxicity / cell viability by SRB colorimetric assay; conditions: mouse, RAW 264.7 cells, inhibition of cell viability of samples-treated RAW264.7 cells
Experimental: as §1

[3] = tested on: NF-κB; assay: NF-κB luciferase reporter assay in TNF-α-induced RAW264.7 cells; conditions: 8 h treatment, TNF-α 50 ng/mL; for inhibition of the NF-κB pathway (result in words): 1-50 µM; for inhibition at 20 µM: Mus musculus, read-out: NF-κB-luciferase inhibitory percentage
Experimental: RAW 264.7 cells (10,000 cells/well) were placed in a 96-well plate and the cells were then transfected with pNF-κB-Luc expression plasmid using a mixture of plasmid and lipofectamin 2000 PLUS in the Opti-MEM® I Reduced Serum Medium according to manufacturer’s instructions (Life Technologies, Carlsbad, CA, USA). After 12 h, the cells were co-incubated with the active samples (1, 5, 10, 20, 50 µM) and TNF-α. Parthenolide (P) was used as positive control. NF-κB was induced by adding TNF-α (50 ng/mL, delivered in PBS) to the treated wells and the induced control wells. After an additional 8 h, Bright-Glo luciferase reagent (Beyotime) was added to each well (100 μL) and the plate was allowed to stand for two minutes. Luminescence measurements with a relative light unit (RLU) were then obtained using a Fluoroskan Ascent multiple microplate reader (Molecular Device, Sunnyvale, CA, USA). Each experiment was performed in biological triplicate (at minimum) with three technical replicates per experiment.
Figure 3 Compound 1 inhibited TNF-α-induced NF-κB activation by NF-κB-luciferase inhibition assay in RAW264.7 cells. 1 and parthenolide (P, positive control) were dosed to RAW264.7 cells containing a stably transfected NF-κB luciferase reporter and stimulated with TNF-α (50 ng/mL) for 8 h (except for a non-induced control, Non-Ind). […] Mean ± standard deviation values are shown with more than three replicates.

[4] = tested on: NF-κB p65 and p50 subunit; assay: Western blotting of p65 and p50 phosphorylation in TNF-α-induced RAW264.7 cells; conditions: 50, 10 and 1 µM, 8 h, TNF-α 50 ng/mL
Experimental: RAW 264.7 cells were seeded in a 24-well plate at 5 × 10^4 cells/well. After cells adherence for overnight, the test compound 1 (50, 10 and 1 µM) or parthenolide (10 µM) and TNF-α (50 ng/mL) were added to the wells and incubated for 8 h. Then, cell pellets were collected and lysed with RIPA lysis buffer containing 0.5 mM phenylmethylsulfonyl fluoride (PMSF) and a protease inhibitor cocktail. The protein concentration of cell samples was analyzed by using the BCA method. Equal amount proteins of each sample were electrophoresed on 12% separating gel and 4% stacking gel and electrotransferred onto an NC membrane. After incubation with appropriate primary and secondary antibodies of p65 and p50, protein blots were detected by using ECL solution and ChemiDoc XRS+ imaging system (Bio-Rad, Hercules, CA, USA). β-actin was used as loading control.  Figure 4 Compound 1 blocks TNF-α-induced NF-κB activation through p65 and p50 phosphorylation in RAW264.7 cells. After treatment with 1 and parthenolide (P) at the indicated concentrations for 8 h, total cell lysates were tested by western blot experiments.

IC50 ([1]; Mus musculus, RAW264.7)	Structure (SMILES)	IC50 at 4 h [2]	also measured
5.61 ± 0.34 µM	C=C1C(=O)O[C@@H]2C[C@]3(C)C(=C[C@H]12)[C@@H](C)CC[C@H]3O [Compound 1, 1β-Hydroxy alantolactone]	> 50 µM	potency against NO production relative to 2–4 ([1]; ratio of IC50 values, 1 versus 2–4): 6.5–8.4 fold; inhibition of the NF-κB pathway (result in words) [3]: dose-dependent inhibition; inhibition at 20 µM [3]: 75%; TNF-α-induced phosphorylation of NF-κB p65 and p50 subunit (result in words) [4]: dose-dependently suppressed
> 1000 µM	Cc1ccc(C2=NO[C@]3(C2)C(=O)O[C@@H]2C[C@@]4(C)C(=O)CC[C@H](C)C4=C[C@@H]23)cc1 [Compound 6]		
36.1 ± 3.8 µM	C=C1C(=O)O[C@@H]2C[C@@]3(C)C(=O)CC[C@H](C)C3=C[C@H]12 [Compound 2]	34.5 ± 5.8 µM	inhibition at 20 µM [3]: 55%
	C=C1C(=O)O[C@H]2[C@H]1CC/C(C)=C/CC[C@@]1(C)O[C@@H]21 [parthenolide, Parthenolide, reference compound]		inhibition of the NF-κB pathway (result in words) [3]: comparably potent
46.5 ± 5.6 µM	C=C1C(=O)O[C@@H]2C[C@]3(C)C(=C[C@H]12)[C@@H](C)CC[C@H]3OC(C)=O [Compound 3]	> 50 µM	
> 1000 µM	C[C@@H]1C(=O)O[C@@H]2C[C@]3(C)C(=C[C@H]12)[C@@H](C)CC[C@H]3O [Compound 5]		
	N=C(N)NN [Aminoguanidine, reference compound]		IC50 [1]: 10.9 ± 1.5 µM
39.6 ± 5.7 µM	C=C1C(=O)O[C@@H]2C[C@]3(C)C(=C[C@H]12)[C@@H](C)CC[C@H]3OC(=O)CCC(=O)O [Compound 4]	> 50 µM	

— publication PMC6150205, “Semisynthesis, an Anti-Inflammatory Effect of Derivatives of 1β-Hydroxy Alantolactone from Inula britannica” (Molecules : A Journal of Synthetic Chemistry and Natural …, 2017)
